# Assay results: the supplement of paper PMC10307832
# Tests used:
# Assay in all cases: relative viability (nuclei count vs DMSO), 5 days (fraction); higher = more cells survive
# LXF-289 = system: LXF-289
# Outline: (§1)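 Relative viability is defined as nuclei in treated wells over nuclei in vehicle wells. Duplicate plates were run and medians reported. Lung cancer cell lines in 1536-well plates were dosed by pin tool one day after seeding, with one drug or with a fixed anchor-drug dose plus five library-drug doses (not always all listed) in √10 steps, and nuclei were counted after 5 days.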
# LU99A = system: LU99A
# Outline: as §1
# UMC-11 = system: UMC-11
# Outline: as §1
# NCI-H1666 = system: NCI-H1666
# Outline: as §1
# NCI-H2009 = system: NCI-H2009
# Outline: as §1
# HOP-62 = system: HOP-62
# Outline: as §1
# LC-2-ad = system: LC-2-ad
# Outline: as §1
# HCC-78 = system: HCC-78
# Outline: as §1
# NCI-H1793 = system: NCI-H1793
# Outline: as §1
# HCC-366 = system: HCC-366
# Outline: as §1
# NCI-H2085 = system: NCI-H2085
# Outline: as §1
# NCI-H358 = system: NCI-H358
# Outline: as §1
# SK-LU-1 = system: SK-LU-1
# Outline: as §1
# NCI-H460 = system: NCI-H460
# Outline: as §1
# NCI-H1792 = system: NCI-H1792
# Outline: as §1
# A-427 = system: A-427
# Outline: as §1
# NCI-H1915 = system: NCI-H1915
# Outline: as §1
# COR-L 105 = system: COR-L 105
# Outline: as §1
# NCI-H2170 = system: NCI-H2170
# Outline: as §1
# NCI-H1944 = system: NCI-H1944
# Outline: as §1
# EPLC-272H = system: EPLC-272H
# Outline: as §1
structure (smiles),measurement,setting,value
Cc1sc2c(c1C)C(c1ccc(Cl)cc1)=N[C@@H](CC(=O)OC(C)(C)C)c1nnc(C)n1-2 [JQ1] + CS(=O)(=O)CCNCc1ccc(-c2ccc3ncnc(Nc4ccc(OCc5cccc(F)c5)c(Cl)c4)c3c2)o1 [Lapatinib] (partner 2 µM),relative viability,LXF-289; first compound 0.04 µM,0.915
same,relative viability,LXF-289; first compound 0.1265 µM,0.862
same,relative viability,LXF-289; first compound 0.4 µM,0.917
same,relative viability,LXF-289; first compound 1.265 µM,0.851
same,relative viability,LXF-289; first compound 4 µM,0.704
same,relative viability,LU99A; first compound 0.04 µM,1.14
same,relative viability,LU99A; first compound 0.1265 µM,0.933
same,relative viability,LU99A; first compound 0.4 µM,0.902
same,relative viability,LU99A; first compound 1.265 µM,0.316
same,relative viability,LU99A; first compound 4 µM,0.217
same,relative viability,UMC-11; first compound 0.04 µM,0.876
same,relative viability,UMC-11; first compound 0.1265 µM,0.757
same,relative viability,UMC-11; first compound 0.4 µM,0.419
same,relative viability,UMC-11; first compound 1.265 µM,0.255
same,relative viability,UMC-11; first compound 4 µM,0.271
same,relative viability,NCI-H1666; first compound 0.04 µM,0.697
same,relative viability,NCI-H1666; first compound 0.1265 µM,0.476
same,relative viability,NCI-H1666; first compound 0.4 µM,0.379
same,relative viability,NCI-H1666; first compound 1.265 µM,0.278
same,relative viability,NCI-H1666; first compound 4 µM,0.288
same,relative viability,NCI-H2009; first compound 0.04 µM,0.961
same,relative viability,NCI-H2009; first compound 0.1265 µM,0.412
same,relative viability,NCI-H2009; first compound 0.4 µM,0.336
same,relative viability,NCI-H2009; first compound 1.265 µM,0.285
same,relative viability,NCI-H2009; first compound 4 µM,0.251
same,relative viability,HOP-62; first compound 0.04 µM,1.07
same,relative viability,HOP-62; first compound 0.1265 µM,0.724
same,relative viability,HOP-62; first compound 0.4 µM,0.636
same,relative viability,HOP-62; first compound 1.265 µM,0.241
same,relative viability,HOP-62; first compound 4 µM,0.126
same,relative viability,LC-2-ad; first compound 0.04 µM,0.92
same,relative viability,LC-2-ad; first compound 0.1265 µM,0.436
same,relative viability,LC-2-ad; first compound 0.4 µM,0.409
same,relative viability,LC-2-ad; first compound 1.265 µM,0.158
same,relative viability,LC-2-ad; first compound 4 µM,0.155
same,relative viability,HCC-78; first compound 0.04 µM,0.861
same,relative viability,HCC-78; first compound 0.1265 µM,0.53
same,relative viability,HCC-78; first compound 0.4 µM,0.493
same,relative viability,HCC-78; first compound 1.265 µM,0.391
same,relative viability,HCC-78; first compound 4 µM,0.28
same,relative viability,NCI-H1793; first compound 0.04 µM,0.617
same,relative viability,NCI-H1793; first compound 0.1265 µM,0.776
same,relative viability,NCI-H1793; first compound 0.4 µM,0.805
same,relative viability,NCI-H1793; first compound 1.265 µM,0.652
same,relative viability,NCI-H1793; first compound 4 µM,0.576
same,relative viability,HCC-366; first compound 0.04 µM,1.02
same,relative viability,HCC-366; first compound 0.4 µM,0.877
same,relative viability,HCC-366; first compound 1.265 µM,0.461
same,relative viability,HCC-366; first compound 4 µM,0.472
same,relative viability,NCI-H2085; first compound 0.04 µM,0.748
same,relative viability,NCI-H2085; first compound 0.1265 µM,0.723
same,relative viability,NCI-H2085; first compound 0.4 µM,0.621
same,relative viability,NCI-H2085; first compound 1.265 µM,0.409
same,relative viability,NCI-H2085; first compound 4 µM,0.396
same,relative viability,NCI-H358; first compound 0.04 µM,0.467
same,relative viability,NCI-H358; first compound 0.1265 µM,0.494
same,relative viability,NCI-H358; first compound 0.4 µM,0.647
same,relative viability,NCI-H358; first compound 1.265 µM,0.561
same,relative viability,NCI-H358; first compound 4 µM,0.577
same,relative viability,SK-LU-1; first compound 0.04 µM,0.891
same,relative viability,SK-LU-1; first compound 0.1265 µM,0.709
same,relative viability,SK-LU-1; first compound 0.4 µM,0.838
same,relative viability,SK-LU-1; first compound 1.265 µM,0.388
same,relative viability,SK-LU-1; first compound 4 µM,0.271
same,relative viability,NCI-H460; first compound 0.04 µM,0.887
same,relative viability,NCI-H460; first compound 0.1265 µM,0.465
same,relative viability,NCI-H460; first compound 0.4 µM,0.536
same,relative viability,NCI-H460; first compound 1.265 µM,0.217
same,relative viability,NCI-H460; first compound 4 µM,0.169
same,relative viability,NCI-H1792; first compound 0.04 µM,0.947
same,relative viability,NCI-H1792; first compound 0.4 µM,0.916
same,relative viability,NCI-H1792; first compound 1.265 µM,0.896
same,relative viability,NCI-H1792; first compound 4 µM,0.688
same,relative viability,A-427; first compound 0.04 µM,0.925
same,relative viability,A-427; first compound 0.1265 µM,0.916
same,relative viability,A-427; first compound 0.4 µM,1.08
same,relative viability,A-427; first compound 1.265 µM,1.02
same,relative viability,A-427; first compound 4 µM,0.696
same,relative viability,NCI-H1915; first compound 0.04 µM,0.976
same,relative viability,NCI-H1915; first compound 0.1265 µM,0.574
same,relative viability,NCI-H1915; first compound 0.4 µM,0.917
same,relative viability,NCI-H1915; first compound 1.265 µM,0.582
same,relative viability,NCI-H1915; first compound 4 µM,0.315
same,relative viability,COR-L 105; first compound 0.04 µM,0.291
same,relative viability,COR-L 105; first compound 0.1265 µM,0.279
same,relative viability,COR-L 105; first compound 0.4 µM,0.323
same,relative viability,COR-L 105; first compound 1.265 µM,0.346
same,relative viability,COR-L 105; first compound 4 µM,0.361
same,relative viability,NCI-H2170; first compound 0.04 µM,0.258
same,relative viability,NCI-H2170; first compound 0.1265 µM,0.252
same,relative viability,NCI-H2170; first compound 0.4 µM,0.262
same,relative viability,NCI-H2170; first compound 1.265 µM,0.229
same,relative viability,NCI-H2170; first compound 4 µM,0.254
same,relative viability,NCI-H1944; first compound 0.04 µM,0.79
same,relative viability,NCI-H1944; first compound 0.1265 µM,0.543
same,relative viability,NCI-H1944; first compound 0.4 µM,0.614
same,relative viability,NCI-H1944; first compound 1.265 µM,0.584
same,relative viability,NCI-H1944; first compound 4 µM,0.454
same,relative viability,EPLC-272H; first compound 0.04 µM,0.937
same,relative viability,EPLC-272H; first compound 0.1265 µM,0.98
same,relative viability,EPLC-272H; first compound 0.4 µM,0.994
same,relative viability,EPLC-272H; first compound 1.265 µM,0.519
same,relative viability,EPLC-272H; first compound 4 µM,0.5
